Reference: paper PMC10771590, “Pathway crosstalk between the central metabolic and heme biosynthetic pathways in Phanerochaete chrysosporium” (Applied Microbiology and Biotechnology, 2024)

Legend:
[1] = molecular target: T1, recombinant PcGAPDH (rPcGAPDH) (Phanerodontia chrysosporium, UniProt Q01982); assay: GAPDH assay and steady-state kinetic analysis; assay type: biochemical, Phanerochaete chrysosporium; details: rPcGAPDH
T1 construct: 6xHis-tag (pET-30) (cleaved yes); made in house; host or cells: E. coli BL21(DE3)pLysS
Experimental: GAPDH assay was performed as previously described (Campanale et al. [2003]). For steady-state kinetic analysis, the reaction mixture (1 ml) contained 40 mM phosphate (pH 7.6), 5.2 μg recombinant PcGAPDH (rPcGAPDH), 40 mM triethanolamine, 5 mM NAD^+, and 0.6–2 mM glyceraldehyde 3-phosphate (GAP3). Reactions were monitored by the increase in absorbance at 340 nm (ε 6220 M^–1 cm^–1) for 1 min, and initial velocities were determined. Inhibitory experiments were done in the presence of 0–2.5 μM hemin. To examine the effect of hemin on GAPDH kinetics, PcGAPDH was incubated with either buffer (control) or hemin for 5 min prior to initiating the reaction. Kinetic parameters were determined from Lineweaver–Burk plots, and Ki values were determined from the secondary plot of each slope of the Lineweaver–Burk plots. Immediately prior to use, hemin was dissolved at 10 mM in 0.1 M NaOH and diluted with 40 mM Tris–HCl (pH 7.5).
Fig. 2 Heterologous expression of PcGAPDH and inhibitory effect of hemin on GAPDH reaction. A M, molecular weight marker; lane 1, rPcGAPDH-His-tag; lane 2, His-tag-cleaved rPcGAPDH. B Reaction mixtures containing 2.5 nM rPcGAPDH, 40 mM phosphate (pH 7.6), 40 mM triethanolamine, 5 mM NAD^+, and 0.6–2 mM GAP3. […] Inset: secondary plots of each slope of Lineweaver–Burk plots against the concentration of hemin for determining inhibition constants. C Reaction mixtures containing 2.5 nM rPcGAPDH, 40 mM phosphate (pH 7.6), 40 mM triethanolamine, 5 mM NAD^+, and 0.6 mM GAP3. Reactions were started by adding substrates followed by 5-min incubation with either buffer or 1 μM inhibitor (hemin or protoporphyrin IX, PPIX). […] All experiments were performed in triplicate. Bars indicated as mean values ± standard deviation (error bars)

[2] = test system: Glyceraldehyde 3-phosphate dehydrogenase (GAPDH) of Plasmodium falciparum; design: method as in Campanale et al. 2003; details: ref Campanale et al. 2003; cited from earlier work
[3] = molecular target: T2, PcGAPDH (Phanerodontia chrysosporium, UniProt Q01982); assay: Peroxidative activity of GAPDH–hemin complex (TMB oxidation); assay type: biochemical, Phanerochaete chrysosporium; details: on binding PcGAPDH in vitro, 1:1 or 1:2 PcGAPDH:hemin, 100 μM H2O2
T2 construct: 6xHis-tag (pET-30) (cleaved yes); made in house; host or cells: E. coli BL21(DE3)pLysS
Experimental: Peroxidative activity of the PcGAPDH–hemin complex was investigated by using 3, 3′, 5, 5′-tetramethylbenzidine (TMB) as oxidation substrate. Before the assay, 100 μM PcGAPDH was incubated with hemin at 1:1 or 1:2 stoichiometry for 30 min at 4 °C in the dark. Reaction mixtures (1 ml) contained 40 mM Tris–HCl (pH 7.5), 125 μM TMB, 100 μM hydrogen peroxide, and 1 μM PcGAPDH with hemin at 1:1 or 1:2 stoichiometry. As a control, 1 or 2 μM hemin without PcGAPDH was used. The reaction was monitored at 655 nm upon the formation of benzidine cation radical for 1 min.
Fig. 6 Peroxidative activity of GAPDH–hemin complex. Peroxidative activity of GAPDH–hemin complex was investigated by using TMB as an oxidation substrate. Reaction mixtures contained 40 mM Tris/HCl (pH 7.5), 125 μM TMB, 100 μM hydrogen peroxide, 1 μM PcGAPDH with hemin at 1:1 (a) or 1:2 (b) stoichiometry. As a control, 1 (c) or 2 (d) μM hemin without PcGAPDH was used. The reaction was monitored at 655 nm for 1 min

[4] = molecular target: T3, rPcCS (Phanerodontia chrysosporium, UniProt Q0EAA7); assay: Heme-derived time-dependent inhibition of PcCS; assay type: biochemical, Phanerochaete chrysosporium; details: 30-min preincubation of PcCS with hemin at 4 °C; read-out: half-maximal inhibitory concentration (IC50)
T3 sequence (Q0EAA7 1-446): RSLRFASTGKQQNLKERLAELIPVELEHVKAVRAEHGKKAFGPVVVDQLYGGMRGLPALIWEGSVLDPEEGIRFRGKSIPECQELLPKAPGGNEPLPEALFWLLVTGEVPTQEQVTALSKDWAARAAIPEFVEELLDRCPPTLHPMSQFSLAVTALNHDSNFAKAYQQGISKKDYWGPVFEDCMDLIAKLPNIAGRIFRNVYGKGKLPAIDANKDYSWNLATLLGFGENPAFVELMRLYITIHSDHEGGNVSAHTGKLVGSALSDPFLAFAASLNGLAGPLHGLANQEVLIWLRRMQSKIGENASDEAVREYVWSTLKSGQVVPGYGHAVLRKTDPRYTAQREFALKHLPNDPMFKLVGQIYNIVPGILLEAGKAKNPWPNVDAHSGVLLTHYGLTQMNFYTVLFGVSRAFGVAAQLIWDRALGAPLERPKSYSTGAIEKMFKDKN
Experimental: Therefore, the data were expressed as relative values against the controls. When 5.7 μM hemin was used, citrate formed was determined by HPLC because of spectroscopic interference with the Soret absorption. All experiments were repeated at least three times, and standard deviations were within 5% in each plot.
Fig. 5 Inhibitory effect of hemin on PcCS reaction. […] Reaction mixtures contained 1.5 nM rPcCS, 40 mM Tris-HCl (pH 8.5), and 120 μM DTNB. Fixed substrate was added at 12 μM and variable substrate at 3–12 μM. […] Insets: secondary plots of each slope of Lineweaver–Burk plots against the concentration of hemin for determining inhibition constants.

T1 sequence (Q01982 whole entry): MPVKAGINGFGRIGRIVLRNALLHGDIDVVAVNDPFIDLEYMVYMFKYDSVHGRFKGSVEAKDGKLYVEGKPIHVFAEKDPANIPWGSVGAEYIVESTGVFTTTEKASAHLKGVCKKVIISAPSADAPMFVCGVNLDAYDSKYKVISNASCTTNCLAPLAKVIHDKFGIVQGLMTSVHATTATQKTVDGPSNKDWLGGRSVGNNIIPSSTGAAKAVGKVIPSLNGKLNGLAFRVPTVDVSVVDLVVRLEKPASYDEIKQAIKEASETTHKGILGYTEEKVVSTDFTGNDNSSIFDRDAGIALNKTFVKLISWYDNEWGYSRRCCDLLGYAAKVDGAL
T2 sequence (Q01982 whole entry): as above

In the case of `C=CC1=C(C)c2cc3[nH]c(cc4nc(cc5[nH]c(cc1n2)c(C)c5CCC(=O)O)C(CCC(=O)O)=C4C)c(C)c3C=C.[Fe+3]` [hemin], the “inhibitory pattern (steady-state analysis)” value ([1]; GAP3 as variable substrate) is given as “mixed type”, the Ki ([1]; pH 7.6, 5 mM NAD+, 0.6–2 mM GAP3, 0–2.5 μM hemin, read-out: Ki (inhibition constant from secondary plot)) is given as 1000 nM and the Ki [2] is given as 200 nM. For the same compound, the “TMB-oxidizing ability of heme” value [3] was “suppressed” and the IC50 [4] was 1000 nM.
